Test results reported in US20100143937A1 (priority 2007, published 2010).

Target: T1, NAPE-PLD (Homo sapiens, UniProt Q6IQ20)
T1 construct: made in house; host or cells: baculovirus/insect cells, pDEST8.1 vector; purified by metal chelating chromatography
T1 sequence (Q6IQ20 with tags, fused parts or gaps): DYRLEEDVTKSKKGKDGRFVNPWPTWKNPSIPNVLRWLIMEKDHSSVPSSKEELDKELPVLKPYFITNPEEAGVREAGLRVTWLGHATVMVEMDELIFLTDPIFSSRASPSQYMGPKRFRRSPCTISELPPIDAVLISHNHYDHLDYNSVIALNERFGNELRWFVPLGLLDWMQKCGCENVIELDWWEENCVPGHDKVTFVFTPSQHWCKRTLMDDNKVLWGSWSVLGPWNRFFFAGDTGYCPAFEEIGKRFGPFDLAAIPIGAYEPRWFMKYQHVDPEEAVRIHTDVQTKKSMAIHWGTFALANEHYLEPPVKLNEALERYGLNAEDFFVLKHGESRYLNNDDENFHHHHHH
Assay: NAPE-PLD PED6 fluorescence assay, Km determination
Assay type: biochemical
Conditions: substrate PED6 with NAPE-PLD; FIG. 8
Description: General assay conditions use the following final concentrations of the following material: NAPE-PLD at 14 nM, PED6 (substrate) at 10 μM, test compounds at 10 μM, DMSO at 1%. PED6 is purchased (see Table 1) as a lyophilized powder and stored at −20° C. A fresh substrate solution should be prepared daily. 1 mg of PED6 is dissolved in 0.88 ml of ethyl acetate and diluted into 43.12 ml assay buffer to make is a 20 μM working solution. PED6 must be kept out of direct light, as it is light sensitive.
Test compounds are diluted in an appropriate buffer. A non-limiting example is 50 mM Tris-HCl, pH 8.0, the buffer may contain DMSO, for instance, 10% DMSO. Assay buffer was 50 mM Tris-HCl, pH 8.0, 0.05% Triton X-100 and stop solution is 0.4 M HCl, 0.05% Triton X-100.
Order of addition of reagents and equipment used: • 1) Dilute enzyme (NAPE-PLD, 22 μM) to 28 nM in assay buffer. • 2) Prepare substrate (20 μM in assay buffer). • 3) Add 10 μl NAPE-PLD to assay plate using FLEXDROP. • 4) Add 2 μl compound (from compound plate) to appropriate wells of assay plate using Cy-Bio. • 5) Incubate plates, covered, at room temperature for 30 minutes (compound preincubation). • 6) Add 10 μl PED6 to assay plate using FLEXDROP. • 7) Incubate plates, covered, at room temperature for 30 minutes (enzyme reaction) • 8) Terminate the reaction by adding 20 μl of stop solution, using FLEXDROP • 9) Read on LJL Acquest. […]

In the case of CCCCCCCCCCCCCCCC(=O)OC[C@H](COP(=O)(O)OCCNC(=O)CCCCCNc1ccc([N+](=O)[O-])cc1[N+](=O)[O-])OC(=O)CCCCC1=[N+]2C(=Cc3c(C)cc(C)n3[B-]2(F)F)C=C1 [PED6], the Km is reported as 3.9 µM.
